Assay results: US20250302719A1, “COLLAGEN PRODUCTION PROMOTER, COSMETIC COMPOSITION OR EXTERNAL PREPARATION FOR SKIN, AND PREPARATION FOR ORAL ADMINISTRATION” (YAMASA CORPORATION, priority 2022, published 2025)

Assays:
[1] = test system: freshly extracted human skin; experiment: Ex vivo evaluation test using freshly extracted human skin, elastica-van Gieson staining of collagen fibers (Example 4); details: CMP, 2Na 1.0, 2.0 w/v % applied from stratum corneum side, total of 72 hours
Experimental: To evaluate the effect on actual skin with greater precision, an ex vivo evaluation test was conducted using freshly extracted human skin.
Abdominal skin tissue was used, which was taken from a patient during cosmetic surgery, after obtaining informed consent for use in research. The extracted skin was placed in a culture plate supplemented with 1.3 ml of D-MEM/Ham's F-12 medium, and conditioned overnight at 37° C. in 5% CO2. An appropriate amount of PBS (-) containing a given concentration of each sample was applied from the stratum corneum side, and further cultured for 24 hours. The treatment was continued for a total of 72 hours while replacing the sample and medium with fresh ones every 24 hours. The concentrations of CMP, 2Na in the respective samples were 0, 1.0, and 2.0 (w/v %).
After the cultured skin tissue was fixed according to a standard method, skin tissue sections were prepared, collagen fibers were stained with elastica-van Gieson stain, and observed under a microscope.

[2] = test system: Normal human fibroblasts (NHDF); experiment: Type I collagen production by normal human fibroblasts directly treated with sample (Example 3, ELISA); assay type: cell-based; details: direct treatment of normal human fibroblasts with 1.25, 2.5, 5 mM sample, 24 hours
Experimental: (§1) The effects of promoting collagen production for pyrimidine nucleotides were then evaluated with the culture supernatant from normal human epidermal cells and with fibroblasts. In this evaluation, the effects were compared for the case where the fibroblasts were directly treated with pyrimidine nucleotides and the case where the fibroblasts were treated with the normal human epidermal cell culture supernatant treated with the pyrimidine nucleotides.
Normal human fibroblasts (NHDF; Kurabo) were seeded in a 96-well plate at a density of 2.55×10^4 cells/well/100 μL and cultured at 37° C. for 24 hours. The medium was then replaced with 100 μL of media (HuMedia-KG2; Kurabo) containing CMP, 2Na at 0, 1.25, 2.5, 5 (mM) (i.e., 0, 0.0459, 0.0918, 0.184 (w/v %)) and UMP, 2Na at 0, 1.25, 2.5, 5 (MM) (i.e., 0, 0.046, 0.092, 0.184 (w/v %)), and cultured for 24 hours.
(§2) The culture supernatant of normal human fibroblasts was collected and an amount of type I collagen was quantified by ELISA. The protein amount of the culture supernatant was also measured by BCA protein assay.

Collagen 1A1 (COL1A1) = experiment: mRNA expression of COL1A1 in fibroblasts treated with culture supernatant from three-dimensional cultured epidermis (Example 2, real time PCR); assay type: cell-based, human; details: three-dimensional cultured epidermis treated with CMP, 2Na 1.0, 2.0 w/v %; supernatant on fibroblasts; GAPDH endogenous control
Experimental: Similarly, the mRNA expression levels of Collagen 1A1 (COL1A1), a factor related to type I collagen synthesis, were quantified by real-time PCR.
(§3) Three-dimensional cultured epidermis (LabCyte EPI MODEL 24; manufactured by J TEC) was set in a 24-well plate to which 500 μL of the attached assay medium was added, and conditioned overnight at 37° C. 50 μL of sample-containing PBS (-) was applied from the stratum corneum side and cultured for 24 hours. After removing the sample-containing PBS (-), the plate was washed with PBS (-). The medium was replaced with a fresh medium, 50 μL of sample-containing PBS (-) was newly applied from the stratum corneum side, and further cultured for 48 hours. After culturing, the culture supernatant was collected. The concentrations of CMP, 2Na in the respective samples were 0, 1.0, and 2.0 (w/v %), respectively.
Normal human fibroblasts were treated with the culture supernatant by the same method as that of Example 1. RNA was extracted from NHDF using RNeasy Mini Kit (QIAGEN), and mRNA expression analysis for collagen 1A1 (COL1A1) was performed by real time PCR ([…]). Glyceraldehyde 3-phosphate dehydrogenase (GAPDH) was used as an endogenous control.

[3] = test system: Normal human fibroblasts (NHDF); experiment: Type I collagen production by normal human fibroblasts treated with culture supernatant from three-dimensional cultured epidermis (Example 1, ELISA); assay type: cell-based; details: three-dimensional cultured epidermis treated with CMP, 2Na 0.125, 0.25, 1.0, 2.0 w/v % from stratum corneum side, supernatant on fibroblasts 24 hours
Experimental: To reproduce the phenomenon that would occur in actual epidermis, the effect of promoting collagen production for pyrimidine nucleotides was evaluated with a culture supernatant from three-dimensional cultured epidermis, and with fibroblasts.
as §3, with “The samples to be treated with UVB were irradiated with 600 mJ/cm^2 using a UVB lamp (TL20W/12RS; manufactured by PHILIPS). For both samples with and without the UVB treatment, the media were” for “The medium was”, “with” for “with a”, “fresh media,” for “fresh medium,”, “0, 0.125, 0.25, 1.0” for “0, 1.0,”, “respectively. […]” for “respectively.”
The culture supernatant from normal human fibroblasts was collected and an amount of type I collagen was quantified by ELISA. The protein amount of the culture supernatant was also measured by BCA protein assay.

[4] = test system: Normal human fibroblasts (NHDF); experiment: Type I collagen production by normal human fibroblasts treated with normal human epidermal cell culture supernatant (K-CM, Example 3, ELISA); assay type: cell-based; details: for amount of collagen in the culture supernatant of normal human fibroblasts (type I collagen): K-CM: supernatant of normal human epidermal cells treated with 1.25, 2.5, 5 mM sample for 24 hours, fibroblasts 24 hours
Experimental: as §1
Normal human epidermal cells (NHEK; Kurabo) were seeded in a 96-well plate at a density of 2.5×10^4 cells/well and cultured at 37° C. for 24 hours. The medium was replaced with 100 μL of sample-containing medium (HuMedia-KG2; Kurabo) and cultured for 24 hours. After culturing, the culture supernatant was collected. The sample solutions used were 0, 1.25, 2.5, and 5 (mM) (i.e., 0, 0.0459, 0.0918, and 0.184 (w/v %)) of CMP, 2Na, and 0, 1.25, 2.5, and 5 (mM) (i.e., 0, 0.046, 0.092, and 0.184 (w/v %)) of UMP, 2Na.
Normal human fibroblasts (NHDF; Kurabo) were seeded in a 96-well plate at a density of 2.5×10^4 cells/well/100 μL and cultured at 37° C. for 24 hours. The medium was then replaced with 100 μL of the culture supernatant obtained in the culture supernatant acquisition step from the three-dimensional cultured epidermis as described above and cultured for 24 hours.
as §2

[5] = test system: cultured human skin fibroblasts; details: uridylic acid alone, as disclosed in Patent Literature 1; cited from earlier work

Structure (SMILES)	collagen fibers in dermis (elastica-van Gieson stain) [1]	amount of collagen (type I collagen) [2]	expression level of COL1A1 (mRNA, relative to 0 w/v %) (Collagen 1A1 (COL1A1))	amount of collagen in the culture supernatant from normal human fibroblasts (type I collagen) ([3]; UVB 600 mJ/cm^2)	amount of collagen in the culture supernatant from normal human fibroblasts (type I collagen) ([3]; UVB (-))	effect of promoting collagen production, cytidylic acid compared with uridylic acid ([4]; Example 3)	amount of collagen in the culture supernatant of normal human fibroblasts (type I collagen) [4]	effect of promoting collagen production [5]
Nc1ccn([C@@H]2O[C@H](COP(=O)(O)O)[C@@H](O)[C@H]2O)c(=O)n1 [CMP, 2Na, disodium cytidylate]	tended to result in denser collagen fibers	no increase	increased	increased	increased	higher effect of promoting collagen production	increased	–
O=c1ccn([C@@H]2O[C@H](COP(=O)(O)O)[C@@H](O)[C@H]2O)c(=O)[nH]1 [UMP, 2Na, disodium uridylate]	–	no increase	–	–	–	–	increased	no effect of promoting collagen production
